Results published in patent publication US20040076668A1, “Controlled-release pharmaceutical formulations” (Pfizer Inc., priority 2002, published 2004).
Read-outs that look alike come from different tables or passages of the source.

How the values were obtained:
[1] = Human in vivo oral dosage escalation studies: nausea and emesis side-effects; conditions: human, in vivo, immediate-release formulations, human
Procedure: (§1) In Tables 13 and 14, standard deviation values are reported parenthetically. Furthermore, a “Yes” entry means greater than half of the subjects experienced the indicated side-effect, while a “No” entry indicates none, or less than half, of the subjects experienced the indicated side-effect.
(§2) The 3 mg dosages of compound (I) indicated in Tables 13 and 14 comprised the simultaneous administration of three 1 mg tablets of the SCT formulations of the present invention. Likewise, the 30 mg dosages of compound (I) comprised the simultaneous administration of three 10 mg tablets of the SCT formulations of the present invention.
(§3) The OPC immediate-release formulations comprising compound (I) were prepared extemporaneously by diluting powdered sodium citrate with water to a final concentration of 0.02 M and dissolving compound (I) therein with stirring. The prepared solution was then orally administered to the subject.
(§4) Analysis of such data will establish the relationship between the plasma pharmacokinetics and nausea and emesis side-effects in human subjects administered with dosages of compound (I). At Cmax values of less than 60 ng/mL, compound (I) was generally well tolerated. […] Dosages of compound (I) greater than 10 mg in the fasted state, and 30 mg in the fed state, could not be successfully administered due to the severity of the resulting nausea and emesis.
(§5) In some subjects given the 30 mg dosage in the fed state, the peak concentrations were in excess of 250 ng/mL, with the mean being 198 ng/mL. Predicated upon a Cmax threshold of 200 ng/mL for emesis, a much higher incidence of emesis would have been predicted to occur at this dosage.

human subjects = assay: as above; conditions: for dosages that could not be successfully administered due to the severity of nausea and emesis: immediate-release, human
Procedure: as §1, §2, §3, §4, §5

[2] = Dissolution as a function of dissolution media pH; format: physicochemical; conditions: at the lower pH (simulated gastric fluid pH 1.2); sink conditions cannot be maintained
Procedure: In order to determine the amount of compound (I) dissolved in simulated gastric fluid at pH 1.2, the amount remaining in the formulations was assayed and subtracted from the amount initially present. This procedure was employed because, at the lower pH, the solubility of compound (I) is lower and sink conditions cannot be maintained during dissolution. [formula] [formula]

[3] = concluded from the IR formulation data

SMILES: C[C@@H](Oc1ccc(CNC(=O)c2cccnc2Oc2ccc3c(c2)OCO3)c(F)c1)C(=O)O [Compound (I), (R)-2-[4-({[2-(Benzo[1,3]dioxol-5-yloxy)-pyridine-3-carbonyl]-amino}-methyl)-3-fluoro-phenoxy]-propionic Acid]
- Cmax ([1]; read-out: threshold for emesis (Cmax)): ~200 ng/mL
- Cmax ([1]; read-out: threshold for nausea (Cmax)): ~60 ng/mL
- Cmax/Tmax ratio that will maintain a low incidence for emesis (human subjects; [3]): less than 100 ng/ml/hr
- Cmax/Tmax ratio that will maintain a low incidence of nausea (human subjects; [3]): less than 40 ng/ml/hr
- dosages that could not be successfully administered due to the severity of nausea and emesis (human subjects; fasted state): greater than 10 mg
- dosages that could not be successfully administered due to the severity of nausea and emesis (human subjects; fed state): > 30 mg
- solubility of compound (I) [2]: lower
